In US20260199484A1, “PROTAC DEGRADERS OF MLLT1 AND/OR MLLT3” (DARK BLUE THERAPEUTICS LTD, priority 2024, published 2026):

Columns and labels:
MLLT3 = target: T1, MLLT3 (Mus musculus, UniProt A2AM29); assay: MLLT3 degradation assay in NIH/3T3 cells (JESS, 5 h); type: cell-based
T1 construct: endogenous in cells; host or cells: NIH/3T3 (ATCC CRL-1658)
T1 sequence (A2AM29 1-569): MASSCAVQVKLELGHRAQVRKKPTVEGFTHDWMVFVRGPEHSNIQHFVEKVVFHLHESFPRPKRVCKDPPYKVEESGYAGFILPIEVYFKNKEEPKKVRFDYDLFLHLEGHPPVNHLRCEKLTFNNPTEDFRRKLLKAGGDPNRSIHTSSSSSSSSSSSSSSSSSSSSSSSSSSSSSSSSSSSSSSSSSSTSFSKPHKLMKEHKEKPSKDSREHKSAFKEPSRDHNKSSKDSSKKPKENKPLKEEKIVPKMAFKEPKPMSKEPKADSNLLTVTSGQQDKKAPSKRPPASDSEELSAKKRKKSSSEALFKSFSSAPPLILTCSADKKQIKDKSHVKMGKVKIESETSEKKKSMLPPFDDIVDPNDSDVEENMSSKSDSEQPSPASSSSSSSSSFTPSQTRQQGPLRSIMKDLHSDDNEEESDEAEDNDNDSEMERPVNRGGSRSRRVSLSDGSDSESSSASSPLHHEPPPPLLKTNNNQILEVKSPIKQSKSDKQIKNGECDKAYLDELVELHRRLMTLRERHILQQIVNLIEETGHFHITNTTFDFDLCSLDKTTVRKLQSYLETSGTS
Experimental: MLLT3 degradation efficacy of compounds was tested in an automated chemiluminescent detection system (JESS, Cat #004-650). NIH/3T3 (#CRL-1658, ATCC) were seeded at a density of 0.5 million cells/well in a cell culture treated 6-well cell culture plate in 2 mL of complete medium (DMEM+10% FBS+1× Penicillin-Streptomycin) and incubated at 37° C., 5% CO2. The next day, 10 mM DMSO stocks were prepared, and cells were treated with eight concentrations of test compounds, starting from 100 nM, 5-fold dilution, at a final DMSO concentration of 0.1% and incubated for 5 h at 37° C., 5% CO2. Post incubation, cells were washed with HBSS and lysed in 70 μL of RIPA buffer supplemented with Protease inhibitors (sc-24948; Santa Cruz). Later, protein estimation was done using BCA protein assay kit (23228; Pierce). 4 gg protein lysate (4 μL of 1 μg/μL lysate) was loaded into each well of the JESS cartridge (SM-W004; Bio-techne) and the JESS run was performed using 1:200 dilution of anti-mouse MLLT3 antibody (#47577; CST) and 1:800 dilution of anti-human GAPDH antibody (2118; Cell signaling technology) with anti-rabbit secondary detection module (DM-001; Bio-Techne). Post run, data was analysed using “Compass for SW” software for chemiluminescent detection. Peak fit was done using “dropped lines” method. […]

MV4-11 cells [1] = assay: MV4-11 cellular proliferative assay, Assay Format A (CellTiter-Glo, 120 h); type: cell-based; settings: Homo sapiens, Assay format A, 120 h, read-out: IC50 (MV4-11 cellular proliferative assay)
Method in brief: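 MV4-11 cells seeded at 50 cells/well and exposed for 120 h to compound (10 semi-log dilutions, top 30 μM) or DMSO. Viability by CellTiter-Glo luminescence, normalised to DMSO and reference-compound wells; AC50 from Hill fit.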

MV4-11 cells [2] = assay: MV4-11 cellular proliferative assay, Assay Format B (CTG 2.0, 168 h); type: cell-based; settings: Homo sapiens, Assay Method B, Table 7, read-out: MV4-11 Antiproliferation IC50
Method in brief: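 Cells seeded at 600/well in IMDM + 10% FBS, incubated overnight, then exposed 168 h (7 days) at 37 °C to 10 concentrations, 3-fold dilutions from 1 uM or 100 nM top dose (0.3% DMSO final). Viability by CTG 2.0 luminescence as % of DMSO control; curves fitted by four-parameter logistic regression.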

human AML = assay: in vivo mouse model of human AML (procedure of Example 112); settings: oral administration, FIG. 1

Cc1nn(CCCCCCCC#Cc2cccc3c2CN(C2CCC(=O)NC2=O)C3=O)c2cc(C(=O)Nc3cc4[nH]c([C@H]5CCCN5C)cc4cn3)ccc12 (mixture of isomers) [Example 1, 1-(9-(2-(2,6-dioxopiperidin-3-yl)-1-oxoisoindolin-4-yl)non-8-yn-1-yl)-3-methyl-N-(2-((R)-1-methylpyrrolidin-2-yl)-1H-pyrrolo[3,2-c]pyridin-6-yl)-1H-indazole-6-carboxamide]
DC50 (MLLT3): 1.6 nM | Dmax (MLLT3; NIH3T3, maximum % degradation observed): 85% | IC50 (MV4-11 cells [1]): < 100 nM | IC50 (MV4-11 cells [2]): 6.5 nM | tumour growth (human AML): reduction in tumour growth
